Data reported in patent publication US9056081B2, “Compositions for treating pseudomonas infection” (Universitätsklinikum Hamburg-Eppendorf, priority 2009, dated 2015).
“Also recorded” adds a separate entry of the source. Like-named read-outs stand apart in the source and are kept apart here. Ends that are not written are not given here.

Key:
[1] = Storage stability of monosaccharide solutions (data not shown); type: physicochemical; conditions: stored at room temperature or at 4° C. dissolved in an aqueous solution
human airway cilia = test: Ciliary beat frequency (CBF) of human nasal mucosa, substances alone without lectin; type: cell-based; conditions: no lectin, over 24 h; for effect on the ciliary beat frequency (CBF), monosaccharide alone: 0.2 M monosaccharide
PA-IIL [2] = target: T1, PA-IIL (Pseudomonas aeruginosa, UniProt Q9HYN5); test: cell-based; type: cell-based
T1 sequence (Q9HYN5 entry or part of it): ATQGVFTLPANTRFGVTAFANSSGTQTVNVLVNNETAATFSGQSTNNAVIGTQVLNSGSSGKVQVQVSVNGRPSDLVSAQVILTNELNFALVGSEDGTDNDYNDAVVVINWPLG
Procedure: (§1) Experiments were carried out on human nasal conchae, obtained during routine surgery from the ENT Hospital of the University Medical Center Hamburg-Eppendorf, Hamburg, Germany. For the measurement of CBF, small pieces of nasal mucosa were punched out of the nasal conchae by a special biopsy punch (Stiefel Laboratorium GmbH, Offenbach, Germany) (4-6 pieces per nasal conchae) and transferred to Petri dishes (Greiner Bio-One, Kremsmünster, Austria) containing RPMI-1640 and L-Glutamine medium (Gibco, Karlsruhe, Germany) supplemented with 10% fetal calf serum (Gibco, Karlsruhe, Germany), 1% Penicillin-Streptomycin (10 000 U/ml, Gibco, Karlsruhe, Germany) and 0.9% Amphotericin B (250 UG/ml, Gibco, Karlsruhe, Germany) as a fungicide. The specimens were maintained under standard cell culture conditions at 37° C. in 5% CO2 for up to two weeks.
(§2) The aim of this experiment was to compare the efficiency of different sugar solutions and peptides to block PA-IL and PA-IIL binding to cilia in tissue sections and in vitro airway cultures by measuring their ciliary beat frequency (CBF). Actively beating ciliated cells were viewed trough phase-contrast optics of a Leica DM IRB HC inverted microscope (Leica, Bensheim, Germany) placed on a Micro-g vibration isolation table (TMC, Peabody, Mass.). During the experiments, the cultured tissue samples were maintained at a constant temperature (35±0.5° C.) by a thermostatically controlled heated stage. The signals were measured and analysed by a computer system incorporating a special purpose MPV-CBF software (Software-Entwicklung Radmann, Solms, Germany). The CBF was calculated by collecting data from 512 readings (10 s) and by performing Fourier analysis (Mewe et al. 2005). Five of these Fourier transforms taken per nasal conchae piece were measured.
(§3) The influence of monosaccharides and several peptides (obtained from Centre for Molecular Neurobiology, Hamburg, Germany) alone and in combination with PA-IL or PA-IIL on CBF was also investigated. The monosaccharides (0.2 M) and peptides (0.968 mM) were pre-incubated with 10 μg/ml PA-IL and 10 μg/ml PA-IIL, respectively, for 30 min at room temperature, at which they were agitated the for whole time and then added to the medium and the CBF was monitored over a 24 h period. Measurement was carried out after 0, 1, 2, 3, 5, 8, 24 h incubation. Negative controls were maintained in medium with no additions made. Positive controls were maintained in medium with PA-IL or PA-IIL, respectively.
For CBF analysis monosaccharides (D-galactose and L(−)-fucose) and peptides were pre-incubated with PA-IIL and the CBF was determined.

PA-IL = PA-IL (Pseudomonas aeruginosa, UniProt Q05097); test: cell-based; type: cell-based
Chain of PA-IL (Q05097 whole entry): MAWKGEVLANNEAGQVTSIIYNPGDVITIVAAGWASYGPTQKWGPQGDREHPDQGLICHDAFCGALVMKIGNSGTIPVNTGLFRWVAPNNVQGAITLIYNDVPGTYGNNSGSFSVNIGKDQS
Procedure: as §1, §2
as §3, with “([…])” for “(0.2 M) and peptides (0.968 mM)”
In CBF analysis, the influence of monosaccharides (D-galactose and L(−)-fucose) and the HNK-1 mimetic peptide pHNK-1 alone and in combination with PA-IL on CBF was investigated.

PA-IL and PA-IIL = test: CBF assay: simultaneous application of PA-IL and PA-IIL; type: cell-based, Pseudomonas aeruginosa
Procedure: Experiments were carried out on human nasal conchae, obtained during routine surgery from the ENT Hospital of the University Medical Center Hamburg-Eppendorf, Hamburg, Germany. […]
The aim of this experiment was to compare the efficiency of different sugar solutions and peptides to block PA-IL and PA-IIL binding to cilia in tissue sections and in vitro airway cultures by measuring their ciliary beat frequency (CBF). […] The signals were measured and analysed by a computer system incorporating a special purpose MPV-CBF software (Software-Entwicklung Radmann, Solms, Germany). The CBF was calculated by collecting data from 512 readings (10 s) and by performing Fourier analysis (Mewe et al. 2005). Five of these Fourier transforms taken per nasal conchae piece were measured.
The influence of monosaccharides and several peptides (obtained from Centre for Molecular Neurobiology, Hamburg, Germany) alone and in combination with PA-IL or PA-IIL on CBF was also investigated. The monosaccharides (0.2 M) and peptides (0.968 mM) were pre-incubated with 10 μg/ml PA-IL and 10 μg/ml PA-IIL, respectively, for 30 min at room temperature, at which they were agitated the for whole time and then added to the medium and the CBF was monitored over a 24 h period. […]

PA-IIL [3] = target: T1, PA-IIL; type: cell-based; conditions: 0.121-0.484 mM peptide co-incubated with 10 μg/ml PA-IIL, 24 h
[4] = 0.2 M monosaccharide co-incubated with 10 μg/ml PA-IIL, 24 h
[5] = 0.2 M monosaccharide co-incubated with 10 μg/ml PA-IL, 24 h
[6] = 0.121 mM peptide co-incubated with 10 μg/ml PA-IL, 24 h
[7] = 0.242 mM peptide co-incubated with 10 μg/ml PA-IL, 24 h

| Compound | stability and inhibitory potency of the solution on storage [1] | effect on the ciliary beat frequency (CBF), monosaccharide alone (human airway cilia) | effect on the CBF-decreasing effect of PA-IIL (PA-IIL [2]; [4]) | effect on the CBF-decreasing effect of PA-IL (PA-IL; [5]) | effect on the decrease of CBF after simultaneous application of PA-IL and PA-IIL (PA-IL and PA-IIL) | effect on the ciliary beat frequency (CBF), peptide alone (human airway cilia; 0.968 mM peptide) | IC50 (PA-IIL [2]) [µM] | effect on the CBF-decreasing effect of PA-IIL (PA-IIL [2]) | effect on the CBF-decreasing effect of PA-IIL (PA-IIL [3]) | IC50 (PA-IL) [µM] | effect on the CBF-decreasing effect of PA-IL (PA-IL) | effect on the CBF-decreasing effect of PA-IL (PA-IL; [6]) | effect on the CBF-decreasing effect of PA-IL (PA-IL; [7]) | effect on the CBF-decreasing effect of PA-IL (PA-IL; listed as scrambled version of the peptide pHNK-1) |
| --- | --- | --- | --- | --- | --- | --- | --- | --- | --- | --- | --- | --- | --- | --- |
| O=C[C@H](O)[C@@H](O)[C@@H](O)[C@H](O)CO [D-galactose, reference compound] | not stable and loose their inhibitory potency | had no effect on the CBF | no inhibition could be achieved; also recorded: resulted in a decline of the CBF within 24 h; also recorded: did not inhibit | reduced the CBF-decreasing effect of the PA lectin; also recorded: could be effectively reduced | – | – | – | – | – | – | – | – | – | – |
| C[C@H](O)[C@@H](O)[C@@H](O)[C@H](O)C=O [L(−)-fucose, reference compound] | not stable and loose their inhibitory potency | had no effect on the CBF | could be reduced; also recorded: reduced the CBF-decreasing effect of the PA lectin | resulted in a continuous decrease of the CBF within 24 h; also recorded: did not inhibit | – | – | – | – | – | – | – | – | – | – |
| FLHTRLFV [pHNK-1] | – | – | – | – | caused an inhibition of lectin induced suppression of CBF; also recorded: could be inhibited | had no effect on the CBF | 968 | inhibited the CBF-decreasing effect of PA-IIL; also recorded: reduced the CBF-decreasing effect of the PA lectin; also recorded: blocked | resulted in a continuous decrease of the CBF within 24 h | 484 | blocked the CBF-decreasing effect of PA-IL; also recorded: reduced the CBF-decreasing effect of the PA lectin; also recorded: could be reduced | resulted in a continuous decrease of the CBF within 24 h | resulted in a continuous decrease of the CBF within 24 h | – |
| TVFHFRLL [sHNK-1] | – | – | – | – | – | – | – | resulted in a continuous decrease of the CBF within 24 h; also recorded: none of the other tested peptides (sHNK-1, pLeX, sLeX) had any consequence; also recorded: had no effect | – | – | also reduced the CBF-decreasing effect of PA-IL; also recorded: reduced the CBF-decreasing effect of the PA lectin; also recorded: resulted in a continuous decrease of the CBF within 24 h | resulted in a continuous decrease of the CBF within 24 h | resulted in a continuous decrease of the CBF within 24 h | also reduced the CBF-decreasing effect of PA-IL |
